US8314117B2, “CGRP receptor antagonists” (Bristol-Myers Squibb Company, priority 2009, dated 2012)

Target: T1, Human CGRP Receptor (Homo sapiens, UniProt O60894+Q16602)
T1 construct: Crude membranes were prepared from SK-N-MC cells expressing CGRP receptors; endogenous in cells; host or cells: SK-N-MC cells (crude membranes)
Test: Radioligand binding assay, [125I]-CGRP displacement from SK-N-MC cell membranes
Settings: SK-N-MC membranes (7 μg/well); [125I]-CGRP final 18 pM; room temperature 2 h; at least two separate experiments
Description: Tissue Culture. SK-N-MC cells were grown at 37° C. in 5% CO2 as a monolayer in medium consisting of MEM with Earle's salts and L-glutamine (Invitrogen) supplemented with 10% fetal bovine serum (Invitrogen). Membrane Preparation. Crude membranes were prepared from SK-N-MC cells expressing CGRP receptors. The cells were rinsed twice with phosphate-buffered saline (155 mM NaCl, 3.3 mM Na2HPO4, 1.1 mM […]4, pH 7.4), and incubated for 5-10 min. at 4° C. in hypotonic lysis buffer consisting of 10 mM Tris (pH 7.4) and 5 mM EDTA. […] Homogenates were centrifuged at 32,000×g for 30 min. The pellets were resuspended in cold hypotonic lysis buffer with 0.1% mammalian protease inhibitor cocktail (Sigma) and assayed for protein concentration. The SK-N-MC homogenate was aliquoted and stored at -80° C. Radioligand Binding Assay. The compounds of invention were solubilized and carried through serial dilutions using 100% DMSO. […] [^125I]-CGRP (GE Healthcare or Perkin-Elmer) was diluted to […] in assay buffer and a volume of 50 μl was added to each well. SK-N-MC membranes were thawed, diluted in assay buffer with fresh 0.1% mammalian protease inhibitor cocktail (Sigma), and re-homogenized. SK-N-MC homogenate (7 μg/well) was added in a volume of 100 μl. The assay plates were then incubated at room temperature for 2 h. […] Protein bound radioactivity was determined using a gamma or scintillation counter. […] Final assay concentration of [^125I]-CGRP was 18 pM. […] All compounds of invention were evaluated in at least two separate experiments.

T1 sequence (Q16602 23-461): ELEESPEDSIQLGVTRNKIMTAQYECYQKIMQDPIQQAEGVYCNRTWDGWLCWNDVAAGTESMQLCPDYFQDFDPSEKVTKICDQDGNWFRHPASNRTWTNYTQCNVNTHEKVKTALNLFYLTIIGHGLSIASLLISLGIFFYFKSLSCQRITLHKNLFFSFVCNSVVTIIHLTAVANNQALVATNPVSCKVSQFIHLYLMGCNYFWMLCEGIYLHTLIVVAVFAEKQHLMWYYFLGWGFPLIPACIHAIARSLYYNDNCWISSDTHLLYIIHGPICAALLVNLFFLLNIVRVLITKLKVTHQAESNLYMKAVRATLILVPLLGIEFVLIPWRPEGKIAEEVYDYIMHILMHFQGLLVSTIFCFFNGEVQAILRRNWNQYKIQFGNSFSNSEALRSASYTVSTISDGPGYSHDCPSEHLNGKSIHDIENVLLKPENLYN
T1 sequence (O60894 27-148): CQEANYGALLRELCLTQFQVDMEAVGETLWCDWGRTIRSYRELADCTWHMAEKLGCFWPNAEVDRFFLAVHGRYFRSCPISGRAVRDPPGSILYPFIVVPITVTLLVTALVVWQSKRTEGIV

Q: Which IC50 does the source give for `O=C(O[C@@H]1CCC(c2cccc(F)c2F)C(O)c2cccnc21)N1CCC(n2c(=O)[nH]c3ncccc32)CC1` (single isomer, unassigned) [Example 5] here?
A: 1.3 nM

Q: How did the IC50 turn out when `[N-]=[N+]=N[C@@H]1c2cccnc2[C@H](OC(=O)N2CCC(n3c(=O)[nH]c4ncccc43)CC2)CC[C@H]1c1cccc(F)c1F` [Example 7, (5S,6S,9R)-5-azido-6-(2,3-difluorophenyl)-6,7,8,9-tetrahydro-5H-cyclohepta[b]pyridin-9-yl 4-(2-oxo-2,3-dihydro-1H-imidazo[4,5-b]pyridin-1-yl)piperidine-1-carboxylate] was run?
A: 0.13 nM

Q: `N[C@@H]1c2cccnc2[C@H](OC(=O)N2CCC(n3c(=O)[nH]c4ncccc43)CC2)CC[C@H]1c1cc(F)cc(F)c1` [Example 10, (5S,6S,9R)-5-amino-6-(3,5-difluorophenyl)-6,7,8,9-tetrahydro-5H-cyclohepta[b]pyridin-9-yl 4-(2-oxo-2,3-dihydro-1H-imidazo[4,5-b]pyridin-1-yl)piperidine-1-carboxylate] was tested. Which IC50 did it give?
A: 0.2 nM

Q: For `O=C(O[C@@H]1CC[C@@H](c2cc(F)cc(F)c2)[C@H](O)c2cccnc21)N1CCC(n2c(=O)[nH]c3ncccc32)CC1` [Example 11, (5S,6S,9R)-6-(3,5-difluorophenyl)-5-hydroxy-6,7,8,9-tetrahydro-5H-cyclohepta[b]pyridin-9-yl 4-(2-oxo-2,3-dihydro-1H-imidazo[4,5-b]pyridin-1-yl)piperidine-1-carboxylate], which IC50 is on record?
A: 0.89 nM

Q: How did the IC50 turn out when `N[C@@H]1c2cccnc2[C@@H](CC(=O)N2CCC(n3c(=O)[nH]c4ncccc43)CC2)CC[C@H]1c1cccc(F)c1F` [Example 21, 1-(1-(2-((5S,6S,9R)-5-amino-6-(2,3-difluorophenyl)-6,7,8,9-tetrahydro-5H-cyclohepta[b]pyridin-9-yl)acetyl)piperidin-4-yl)-1H-imidazo[4,5-b]pyridin-2(3H)-one] was run?
A: > 1000 nM

Q: With `O=C(O[C@@H]1CC[C@@H](c2cccc(F)c2F)/C(=N\O)c2cccnc21)N1CCC(n2c(=O)[nH]c3ncccc32)CC1` [Example 16, (6S,9R,E)-6-(2,3-difluorophenyl)-5-(hydroxyimino)-6,7,8,9-tetrahydro-5H-cyclohepta[b]pyridin-9-yl 4-(2-oxo-2,3-dihydro-1H-imidazo[4,5-b]pyridin-1-yl)piperidine-1-carboxylate] as the compound, how does the IC50 read?
A: 40 nM

Q: Which IC50 does the source give for `O=C(O[C@@H]1CC[C@@](O)(c2cccc(F)c2F)C(=O)c2cccnc21)N1CCC(n2c(=O)[nH]c3ncccc32)CC1` (single isomer, unassigned) [Example 1] here?
A: 410 nM

Q: Which IC50 does the source give for `O=C(O[C@@H]1CC[C@@H](c2cccc(F)c2F)/C(=N/O)c2cccnc21)N1CCC(n2c(=O)[nH]c3ncccc32)CC1` [Example 15, (6S,9R,Z)-6-(2,3-difluorophenyl)-5-(hydroxyimino)-6,7,8,9-tetrahydro-5H-cyclohepta[b]pyridin-9-yl 4-(2-oxo-2,3-dihydro-1H-imidazo[4,5-b]pyridin-1-yl)piperidine-1-carboxylate] here?
A: 28 nM

Q: Which IC50 does the source give for `N[C@@H]1c2cccnc2[C@H](NC(=O)N2CCC(n3c(=O)[nH]c4ncccc43)CC2)CC[C@H]1c1cccc(F)c1F` [Example 18] here?
A: 0.8 nM

Q: Which IC50 does the source give for `O=C(O[C@@H]1CC[C@@H](c2cccc(F)c2F)[C@H](O)c2cccnc21)N1CCC(n2c(=O)[nH]c3ncccc32)CC1` [Example 4, (5S,6S,9R)-6-(2,3-difluorophenyl)-5-hydroxy-6,7,8,9-tetrahydro-5H-cyclohepta[b]pyridin-9-yl 4-(2-oxo-2,3-dihydro-1H-imidazo[4,5-b]pyridin-1-yl)piperidine-1-carboxylate] here?
A: 0.16 nM

Q: With `CN[C@@H]1c2cccnc2[C@H](OC(=O)N2CCC(n3c(=O)[nH]c4ncccc43)CC2)CC[C@H]1c1cccc(F)c1F` [Example 13, (5S,6S,9R)-6-(2,3-difluorophenyl)-5-(methylamino)-6,7,8,9-tetrahydro-5H-cyclohepta[b]pyridin-9-yl 4-(2-oxo-2,3-dihydro-1H-imidazo[4,5-b]pyridin-1-yl)piperidine-1-carboxylate] as the compound, how does the IC50 read?
A: 0.19 nM

Q: For `N[C@@H]1c2cccnc2[C@H](OC(=O)N2CCC(n3c(=O)[nH]c4ncccc43)CC2)CC[C@H]1c1cccc(F)c1F` [Example 8, (5S,6S,9R)-5-amino-6-(2,3-difluorophenyl)-6,7,8,9-tetrahydro-5H-cyclohepta[b]pyridin-9-yl 4-(2-oxo-2,3-dihydro-1H-imidazo[4,5-b]pyridin-1-yl)piperidine-1-carboxylate], which IC50 is on record?
A: 0.04 nM

Q: With `O=C(O[C@@H]1CC[C@@](O)(c2cccc(F)c2F)[C@@H](O)c2cccnc21)N1CCC(n2c(=O)[nH]c3ncccc32)CC1` (single isomer, unassigned) [Example 3] as the compound, how does the IC50 read?
A: 500 nM

Q: With `O=C1c2cccnc2[C@H](OC(=O)N2CCC(n3c(=O)[nH]c4ncccc43)CC2)CCC1c1cccc(F)c1F` (mixture of isomers) [Example 2, (9R)-6-(2,3-difluorophenyl)-5-oxo-6,7,8,9-tetrahydro-5H-cyclohepta[b]pyridin-9-yl 4-(2-oxo-2,3-dihydro-1H-imidazo[4,5-b]pyridin-1-yl)piperidine-1-carboxylate] as the compound, how does the IC50 read?
A: 28 nM

Q: `CN(C)[C@@H]1c2cccnc2[C@H](OC(=O)N2CCC(n3c(=O)[nH]c4ncccc43)CC2)CC[C@H]1c1cccc(F)c1F` [Example 14, (5S,6S,9R)-6-(2,3-difluorophenyl)-5-(dimethylamino)-6,7,8,9-tetrahydro-5H-cyclohepta[b]pyridin-9-yl 4-(2-oxo-2,3-dihydro-1H-imidazo[4,5-b]pyridin-1-yl)piperidine-1-carboxylate] was tested. Which IC50 did it give?
A: 2 nM

Q: `O=C(O[C@H]1c2ncccc2C[C@H](c2cccc(F)c2F)C[C@H]1O)N1CCC(n2c(=O)[nH]c3ncccc32)CC1` [Example 12, (6S,8R,9S)-6-(2,3-difluorophenyl)-8-hydroxy-6,7,8,9-tetrahydro-5H-cyclohepta[b]pyridin-9-yl 4-(2-oxo-2,3-dihydro-1H-imidazo[4,5-b]pyridin-1-yl)piperidine-1-carboxylate] was tested. Which IC50 did it give?
A: 12 nM

Q: Which IC50 does the source give for `N[C@@H]1c2cccnc2[C@H](OC(=O)Nc2ccc3c(c2)CC2(C3)C(=O)Nc3ncccc32)CC[C@H]1c1cccc(F)c1F` (stereo partly drawn) [Example 17, (5S,6S,9R)-5-amino-6-(2,3-difluorophenyl)-6,7,8,9-tetrahydro-5H-cyclohepta[b]pyridin-9-yl 2′-oxo-1,1′,2′,3-tetrahydrospiro[indene-2,3′-pyrrolo[2,3-b]pyridine]-5-ylcarbamate] here?
A: 1.2 nM

Q: How did the IC50 turn out when `O=C(O[C@@H]1CC[C@H](c2cccc(F)c2F)[C@H](O)c2cccnc21)N1CCC(n2c(=O)[nH]c3ncccc32)CC1` [Example 6, (5S,6R,9R)-6-(2,3-difluorophenyl)-5-hydroxy-6,7,8,9-tetrahydro-5H-cyclohepta[b]pyridin-9-yl 4-(2-oxo-2,3-dihydro-1H-imidazo[4,5-b]pyridin-1-yl)piperidine-1-carboxylate] was run?
A: 8.6 nM
